From the CheMixHub ionic liquid set

Assay: xn = mol fraction of the nth substance listed

c1c[nH]cn1 + CCCCCC[N+]1(C)CCCC1.O=S(=O)([N-]S(=O)(=O)C(F)(F)F)C(F)(F)F
101.33 kPa, x2 = 0.5
Details | viscosity [mPa·s]
343.15 K | 11
353.15 K | 8

CCCCCC[n+]1ccn(C)c1.[Cl-] + CCCCCC[n+]1ccn(C)c1.F[B-](F)(F)F
101 kPa
Details | electrical conductivity [S/m] | viscosity [mPa·s]
303 K, x1 = 0.2 | 0.0846 | –
303 K, x1 = 0.4 | 0.0415 | –
303 K, x1 = 0.6 | 0.0196 | –
303 K, x1 = 0.8 | 0.00783 | –
303 K, x1 = 1 | 0.00318 | –
303.15 K, x1 = 0.2 | – | 380
303.15 K, x1 = 0.4 | – | 800
303.15 K, x1 = 0.6 | – | 1835
308 K, x1 = 0.2 | 0.113 | –
308 K, x1 = 0.4 | 0.0581 | –
308 K, x1 = 0.6 | 0.029 | –
308 K, x1 = 0.8 | 0.0123 | –
308 K, x1 = 1 | 0.00531 | –
308.15 K, x1 = 0.2 | – | 275
308.15 K, x1 = 0.4 | – | 550
308.15 K, x1 = 0.6 | – | 1194
313 K, x1 = 0.2 | 0.147 | –
313 K, x1 = 0.4 | 0.0791 | –
313 K, x1 = 0.6 | 0.0413 | –
313 K, x1 = 0.8 | 0.0186 | –
313 K, x1 = 1 | 0.00852 | –
313.15 K, x1 = 0.2 | – | 204
313.15 K, x1 = 0.4 | – | 390
313.15 K, x1 = 0.6 | – | 810
313.15 K, x1 = 0.8 | – | 1892
318 K, x1 = 0.2 | 0.19 | –
318 K, x1 = 0.4 | 0.106 | –
318 K, x1 = 0.6 | 0.0575 | –
318 K, x1 = 0.8 | 0.0272 | –
318 K, x1 = 1 | 0.0133 | –
318.15 K, x1 = 0.2 | – | 156
318.15 K, x1 = 0.4 | – | 283
318.15 K, x1 = 0.6 | – | 560
318.15 K, x1 = 0.8 | – | 1237
323 K, x1 = 0.2 | 0.24 | –
323 K, x1 = 0.4 | 0.14 | –
323 K, x1 = 0.6 | 0.0791 | –
323 K, x1 = 0.8 | 0.0392 | –
323 K, x1 = 1 | 0.0202 | –
323.15 K, x1 = 0.2 | – | 122
323.15 K, x1 = 0.4 | – | 213
323.15 K, x1 = 0.6 | – | 400
323.15 K, x1 = 0.8 | – | 840
323.15 K, x1 = 1 | – | 1879
328 K, x1 = 0.2 | 0.299 | –
328 K, x1 = 0.4 | 0.179 | –
328 K, x1 = 0.6 | 0.106 | –
328 K, x1 = 0.8 | 0.0547 | –
328 K, x1 = 1 | 0.0295 | –
328.15 K, x1 = 0.2 | – | 98
328.15 K, x1 = 0.4 | – | 163
328.15 K, x1 = 0.6 | – | 296
328.15 K, x1 = 0.8 | – | 580
328.15 K, x1 = 1 | – | 1228
333 K, x1 = 0.2 | 0.368 | –
333 K, x1 = 0.4 | 0.227 | –
333 K, x1 = 0.6 | 0.139 | –
333 K, x1 = 0.8 | 0.0747 | –
333 K, x1 = 1 | 0.0423 | –
333.15 K, x1 = 0.2 | – | 78
333.15 K, x1 = 0.4 | – | 128
333.15 K, x1 = 0.6 | – | 220
333.15 K, x1 = 0.8 | – | 420
333.15 K, x1 = 1 | – | 840

CCC(C)O (stereo not drawn) + CCCCCC[n+]1ccn(C)c1.O=[N+]([O-])[O-]
100 kPa, x2 = 0
Details | viscosity [mPa·s]
293.15 K | 3.67
298.15 K | 3.04
303.15 K | 2.54
308.15 K | 2.13
313.15 K | 1.8
318.15 K | 1.54
323.15 K | 1.33

CCCCCC[n+]1ccn(C)c1.[Cl-] + CCCCCO
101 kPa
Details | viscosity [mPa·s]
293.15 K, x1 = 0.0088 | 4.33
293.15 K, x2 = 0.849 | 10.53
303.15 K, x1 = 0.0042 | 3.1
303.15 K, x1 = 0.0166 | 3.41
303.15 K, x2 = 0.1514 | 1675
313.15 K, x1 = 0.0042 | 2.37
313.15 K, x2 = 0.2971 | 259.6
313.15 K, x2 = 0.8012 | 8.12
323.15 K, x2 = 0 | 783
323.15 K, x2 = 0.8012 | 6.29
333.15 K, x2 = 0.7018 | 9.13

CCCC[N+]1(C)CCCCC1.F[P-](F)(F)(F)(F)F + CCCC[N+]1(C)CCCC1.F[P-](F)(F)(F)(F)F
102 kPa
Details | viscosity [mPa·s]
353.15 K, x1 = 0.5 | 154
383.15 K, x1 = 0.3 | 41

NC(N)=NCCC[C@H](N)C(=O)O + CCCC[N+](C)(CCCC)CCCC.[Cl-] + O
viscosity [mPa·s], 101.3 kPa
Details | 293.15 K | 298.15 K | 303.15 K | 308.15 K | 313.15 K
x1 = 0.0003636, x2 = 0.00072 | 1.06 | 0.94 | 0.85 | 0.76 | 0.69
x1 = 0.0003667, x2 = 0.001439 | 1.1 | 0.98 | 0.88 | 0.79 | 0.72
x1 = 0.0007271, x2 = 0.0007198 | 1.07 | 0.95 | 0.86 | 0.78 | 0.7
x1 = 0.0007335, x2 = 0.001438 | 1.11 | 0.99 | 0.89 | 0.8 | 0.73
x1 = 0.001088, x2 = 0.0007195 | 1.08 | 0.97 | 0.87 | 0.79 | 0.71
x1 = 0.001096, x2 = 0.001438 | 1.12 | 1 | 0.9 | 0.82 | 0.75
x1 = 0.001452, x2 = 0.0007192 | 1.1 | 0.98 | 0.88 | 0.8 | 0.72
x1 = 0.001464, x2 = 0.001437 | 1.13 | 1.01 | 0.91 | 0.83 | 0.76
x1 = 0.001809, x2 = 0.001437 | 1.15 | 1.02 | 0.92 | 0.84 | 0.77
x1 = 0.001816, x2 = 0.000719 | 1.11 | 0.99 | 0.89 | 0.81 | 0.73
x1 = 0.002177, x2 = 0.0007187 | 1.12 | 1 | 0.9 | 0.82 | 0.75
x1 = 0.002195, x2 = 0.001436 | 1.16 | 1.04 | 0.94 | 0.85 | 0.78
x1 = 0.002535, x2 = 0.0007185 | 1.13 | 1.02 | 0.92 | 0.84 | 0.76
x1 = 0.00256, x2 = 0.001436 | 1.17 | 1.05 | 0.95 | 0.87 | 0.79

CC[n+]1ccn(C)c1.O=S(=O)([O-])C(F)(F)C(F)F + CCCC[n+]1ccc(C)cc1.O=S(=O)([N-]S(=O)(=O)C(F)(F)F)C(F)(F)F
100 kPa
Details | viscosity [mPa·s]
293.15 K, x2 = 0.2211 | 111.1
293.15 K, x2 = 0.3324 | 106.5
293.15 K, x2 = 0.4432 | 101
293.15 K, x2 = 0.774 | 84.5
303.15 K, x2 = 0.3324 | 66.1
303.15 K, x2 = 0.9517 | 47.6
313.15 K, x2 = 0.0504 | 47.7
313.15 K, x2 = 0.112 | 47
313.15 K, x2 = 0.4432 | 41.7
313.15 K, x2 = 0.6631 | 37.5
323.15 K, x2 = 0.4432 | 29.2
333.15 K, x2 = 0.4432 | 21.5
333.15 K, x2 = 0.5529 | 20.3
333.15 K, x2 = 0.6631 | 19.5
343.15 K, x2 = 0.0504 | 18.2
353.15 K, x2 = 0.774 | 10.9
353.15 K, x2 = 0.8828 | 10.3
